Data reported in patent US7962204B2 (priority 2001, dated 2011).

Key:
[1] = tested on: patients with alpha frequency deficits / theta excess; set-up: species or system human; settings: in vivo
[2] = tested on: behaviorally-diagnosed psychiatric conditions (DSM categories); set-up: species or system human; settings: in vivo;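 as to use code of agent in 301.7 Antisocial Personality Disorder: N marks novel agent found effective in subject subgroups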;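 as to use code of agent in 301.83 Borderline Personality Disorder: N marks novel agent found effective in subject subgroups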;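 as to use in 307.50 Eating Disorder NOS: N marks novel agent found effective in subject subgroups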;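 as to use in 307.51 Bulimia Nervosa: N marks novel agent found effective in subject subgroups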;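 as to use in 313.81 Oppositional Defiant Disorder: N marks novel agent found effective in subject subgroups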
[3] = tested on: patients with various DSM diagnoses; settings: human, in vivo

NC(=O)N1c2ccccc2C=Cc2ccccc21 [carbamazepine]
responded positively: clinical response of patients 1-4 [1]

N[C@@H](Cc1ccc(O)cc1)C(=O)O [L-tyrosine]
successfully treated: clinical response of granddaughter [1]

NC(=O)CC[C@H](N)C(=O)O [GLUTAMINE, reference compound]
N: agent found effective in 299.00 Autistic Disorder [2] | agent found effective in 300.00 Anxiety Disorder NOS [2] | agent found effective in 300.02 Generalized Anxiety Disorder [2] | agent found effective in 300.22 Agoraphobia Without History of Panic Disorder [2] | agent found effective in 300.23 Social Phobia [2] | agent found effective in 300.29 Specific Phobia [2] | agent found effective in 300.3 Obsessive-Compulsive Disorder [2] | agent found effective in 309.81 Posttraumatic Stress Disorder [2] | agent found effective in Panic Disorder [2] | use in Dementia of the Alzheimer's Type [2]
successfully treated: clinical response of granddaughter [1]

C[C@H](N)Cc1ccccc1 [D-amphetamine]
5 patients: false negatives [3]

O=C1Nc2ccc(Cl)cc2C(c2ccccc2Cl)=NC1O (centres unmarked) [lorazepam]
only slightly responsive: response of chronic insomnia of patient 4 [1]

CC(NC(C)(C)C)C(=O)c1cccc(Cl)c1 (centres unmarked) [Bupropion]
responded positively: clinical response of patients 1-4 [1]

GABA [reference compound]
N: agent found effective in 300.00 Anxiety Disorder NOS [2] | agent found effective in 300.02 Generalized Anxiety Disorder [2] | agent found effective in 300.22 Agoraphobia Without History of Panic Disorder [2] | agent found effective in 300.23 Social Phobia [2] | agent found effective in 300.29 Specific Phobia [2] | agent found effective in 300.3 Obsessive-Compulsive Disorder [2] | agent found effective in 309.81 Posttraumatic Stress Disorder [2] | agent found effective in Panic Disorder [2] | use code of agent in 301.4 Obsessive-Compulsive Personality Disorder [2] | use code of agent in 301.7 Antisocial Personality Disorder [2] | use code of agent in 301.82 Avoidant Personality Disorder [2] | use code of agent in 301.83 Borderline Personality Disorder [2] | use code of agent in 307.42 Primary Insomnia [2] | use code of agent in 316 Psychological Factors Affecting Medical Condition, Neurodermatitis [2] | use in 300.00 Anxiety Disorder NOS [2] | use in 300.02 Generalized Anxiety Disorder [2] | use in 300.22 Agoraphobia Without History of Panic Disorder [2] | use in 300.23 Social Phobia [2] | use in 300.29 Specific Phobia [2] | use in 300.3 Obsessive-Compulsive Disorder [2] | use in 307.1 Anorexia Nervosa [2] | use in 307.22 Chronic Motor or Vocal Tic Disorder [2] | use in 307.50 Eating Disorder NOS [2] | use in 307.51 Bulimia Nervosa [2] | use in 309.21 Separation Anxiety Disorder [2] | use in 309.81 Posttraumatic Stress Disorder [2] | use in 313.81 Oppositional Defiant Disorder [2] | use in Panic Disorder [2] | use of the agent in the diagnostic category (C = common use; N = novel use from rEEG features) [2]

NC12CC3CC(CC(C3)C1)C2 [AMANTADINE]
N: use code of agent in 312.30 Impulse-Control Disorder NOS [2] | use code of agent in 312.8 Conduct Disorder [2] | use code of agent in 313.81 Oppositional Defiant Disorder [2] | use code of agent in 315.9 Learning Disorder NOS [2] | use code of agent in Attention-Deficit/Hyperactivity Disorder [2]

Clc1cccc(Cl)c1N=C1NCCN1 [CLONIDINE]
N: use code of agent in 316 Psychological Factors Affecting Medical Condition, Hypertensive Disorder NOS [2]

O=C(NCCN1CCOCC1)c1ccc(Cl)cc1 [MOCLOBEMIDE]
N: use code of agent in 302.71 Hypoactive Sexual Desire Disorder [2] | use code of agent in 316 Psychological Factors Affecting Medical Condition, Hypertensive Disorder NOS [2]
